Structures can show the parent of a compound that is named as a salt.
Target: Human immunodeficiency virus type 1 reverse transcriptase (Human immunodeficiency virus 1, UniProt Q72547, K103N/Y181C)
Assay: Inhibitory activity against non-nucleoside reverse transcriptase inhibitors (NNRTI) -resistant HIV-1 strain A17 variant with Y181C plus K103N mutations in RT (reverse transcriptase)

SMILES	IC50 [µM]
S=C(NCCc1cccs1)Nc1ccc(Br)cn1	3.3
Oc1ccc(CCNC(=S)Nc2ccc(Br)cn2)cc1	> 100
S=C(NCCC1=CCCCC1)Nc1nccs1	> 100
S=C(NCc1ccco1)Nc1nccs1	0.6
Cc1ccc(CC/N=C(\S)Nc2nccs2)cc1	> 100
S=C(NCC12CC3CC(CC(C3)C1)C2)Nc1nccs1	1.3
CCC(NC(=S)Nc1nccs1)c1ccccc1 (stereo unspecified)	1.5
S=C(NCCOc1ccccc1)Nc1nccs1	> 100
S=C(NCCc1c[nH]c2ccccc12)Nc1nccs1	3.7
S=C(NCCCn1ccnc1)Nc1nccs1	> 100

Test system: Human immunodeficiency virus 1
Assay: Tested for the ability to inhibit the replication of HIV-1 strain HTLV IIIB in human peripheral blood mononuclear cells (PBMC)
Format: functional, organism-based

SMILES	IC50 [µM]
Oc1ccc(CCNC(=S)Nc2ccc(Br)cn2)cc1	0.007
S=C(NCCc1ccccn1)Nc1nccs1	1
S=C(NCc1ccco1)Nc1nccs1	< 0.001
Cc1ccc(CC/N=C(\S)Nc2nccs2)cc1	0.07
S=C(NCC12CC3CC(CC(C3)C1)C2)Nc1nccs1	< 0.001
Oc1ccc(CC/N=C(\S)Nc2nccs2)cc1	> 100
S=C(NCCN1CCCCC1)Nc1nccs1	> 100
S=C(NCCc1cccs1)Nc1nccs1	< 0.001
S=C(NCCOc1ccccc1)Nc1nccs1	< 0.001
S=C(NCCc1c[nH]c2ccccc12)Nc1nccs1	< 0.001
S=C(NCCCn1ccnc1)Nc1nccs1	< 0.001
CC(C)Nc1cccnc1N1CCN(C(=O)c2cc3cc(NS(C)(=O)=O)ccc3[nH]2)CC1 [DELAVIRDINE MESYLATE]	0.009
Cc1ccnc2c1NC(=O)c1cccnc1N2C1CC1 [NEVIRAPINE]	0.034

Test system: not listed separately
Assay: Cytotoxic concentration was evaluated against human peripheral blood mononuclear cells (PBMC)
Format: functional

SMILES	CC50 [µM]
S=C(NCCc1cccs1)Nc1ccc(Br)cn1	> 100
Oc1ccc(CCNC(=S)Nc2ccc(Br)cn2)cc1	> 100
S=C(NCCc1ccccn1)Nc1nccs1	100
S=C(NCc1ccco1)Nc1nccs1	> 100
Cc1ccc(CC/N=C(\S)Nc2nccs2)cc1	> 100
S=C(NCC12CC3CC(CC(C3)C1)C2)Nc1nccs1	40
S=C(NCCc1cccs1)Nc1nccs1	71
S=C(NCCOc1ccccc1)Nc1nccs1	> 100
S=C(NCCc1c[nH]c2ccccc12)Nc1nccs1	28
S=C(NCCCn1ccnc1)Nc1nccs1	35

Test system: Human immunodeficiency virus 1
Assay: Selectivity index was determined
Format: functional

SMILES	Selectivity index
S=C(NCCc1ccccn1)Nc1nccs1	100
S=C(NCc1ccco1)Nc1nccs1	>100000
Cc1ccc(CC/N=C(\S)Nc2nccs2)cc1	1429
S=C(NCC12CC3CC(CC(C3)C1)C2)Nc1nccs1	40000
S=C(NCCc1cccs1)Nc1nccs1	71000
S=C(NCCOc1ccccc1)Nc1nccs1	>100000
S=C(NCCc1c[nH]c2ccccc12)Nc1nccs1	28000
S=C(NCCCn1ccnc1)Nc1nccs1	35000
